Patent publication US10563272B2, “Compositions comprising Metarhizium fungi and use thereof as a pesticide” (Cotton Research and Development Corporation, priority 2015, dated 2020)

Assays:
lacewings = test: Foliar spray trial on Bollgard II cotton, Norwood 2010-11 (Example 7): lacewings; assay type: in vivo, Chrysopa spp., Micromus tasmaniae; details: fipronil 62.5 mL/ha; for number of lacewings per meter: 1st spray, BC 667/DAT 511 0.50 L/ha; for number of lacewings per metre: 2nd spray, BC 667/DAT 511 0.5 L/ha
Experimental: The trial was conducted on commercial Bollgard II® cotton crops at Norwood near Moree, NSW from 5 Dec. 2010 to 19 Feb. 2011. The cotton was at the early squaring stage, when it was attractive to green mirids (Khan et al. 2004).
The study evaluated the efficacy of the following treatments against green mirids, green vegetable bugs and predatory insects: • 1. 500 mL/ha BC 667 spore in oil (1×10^7 spores/ml); • 2. 500 mL/ha DAT 511 spore in oil (1×10^7 spores/ml); • 3. 62.5 mL/ha Fipronil (conventional insecticide); and • 4. Unsprayed (control).
The treatment plots were arranged in a randomized complete block design with four replicates per treatment. Each replicated plot measured 0.5 ha. Foliar application of each treatment was made on 18 Jan. 2011 using a ground spray rig fitted with flat fan nozzles to achieve a droplet size of 80 250 μm. The treatment was applied in the mornings when temperature was between 20° C. and 28° C. The timing of treatment was based on an economic threshold of 0.5 green mirids per metre, the IPM guideline and recommendation by CottonLogic.
Pre-treatment counts of green mirid adults and nymphs, predatory beetles, predatory bugs, predatory lacewings and spiders were made by visual inspection of whole cotton plants. Both adults and nymphs of the beneficial insects were counted. Plants were assessed in randomly selected one-metre lengths of row of each treatment replicate (i.e. four metres per treatment). In all, two spray applications of each treatment were made. The first spray was made on 18 Jan. 2011. Post-treatment counts of the first spray application were taken 3, 7 and 14 days after treatment (DAT) (first spray). A second spray application was done on 1 Feb. 2011 when green mirid adults plus nymphs reached the threshold of 0.5 per metre. Post-treatment counts of the second spray application were taken 3, 7, 14, 21 and 28 DAT. Data are expressed as numbers of individuals of that species counted per metre for each treatment.

predatory beetles = test: Bollgard II cotton, Auscott-Togo 2012-13, Field 77 (Experiment 1): predatory beetles; assay type: in vivo, Coleoptera (Coccinellidae, Melyridae); details: 62.5 mL/ha
Experimental: Two separate trials (Experiment 1 in Field 77; Experiment 2 in Field 63) were conducted in Bollgard II cotton crops on a commercial cotton farm at Auscott-Togo near Narrabri, New South Wales from 11 Feb. to 5 Mar. 2013 (Field 77) and 19 Feb. to 6 Mar. 2013 (Field 63). The cotton used for each of the trials was at the late squaring to pod setting and maturation stages which was fairly attractive to green mirids.
(§1) In both trials, the efficacy of the following treatments against green mirids and predatory insects was evaluated: • 1. 250 mL/ha DAT 511 spore in oil (1×10^7 spores/ml); • 2. 500 mL/ha DAT 511 spore in oil (1×10^7 spores/ml); • 3. 1 L/ha DAT 511 spore in oil (1×10^7 spores/ml); • 4. 62.5 mL/ha of fipronil; and • 5. Unsprayed (negative control).
The treatment plots were arranged in a randomized complete block design with six replicates per treatment. Each replicated plot measured 40 m wide (40 rows) and 90 m long.
Foliar application of each treatment was made on 28 Feb. (for both green mirids and beneficial insects) and 13 Mar. 2012 (for beneficial insects alone) using a ground spray rig fitted with flat fan nozzles to achieve a droplet size of 200 μm. The treatment was applied during the mornings when temperatures were between 20° C. and 28° C. The timing of treatment was based on the IPM Guidelines and recommendations by CottonLogic to use an economic threshold of 0.5 green mirids per metre (Deutscher and Wilson 1999; Khan et al. 2004).
Pre-treatment counts of green mirid adults and nymphs, predatory beetles, predatory bugs, predatory lacewings and spiders were made by visual inspection of whole cotton plants. Both adults and nymphs of beneficial insects were counted. Plants were assessed in randomly selected one-metre lengths of row of each replicate (i.e. 6 m per treatment). Post-treatment counts were made 3, 7, 14 and 21 days after treatment. Data are expressed as numbers of green mirid adults and nymphs counted per metre for each treatment.

predatory bugs = test: Rate trial on conventional cotton refuge crops, Undabri 2012 (Example 12): predatory bugs; assay type: in vivo, Hemiptera (Nabidae, Lygaeidae, Pentatomidae); details: DAT 511 500 mL and 1.0 L/ha (P<0.001 versus 250 mL/ha and unsprayed); fipronil 62.5 mL/ha
Experimental: This trial was conducted using commercial conventional cotton refuge crops at Undabri in Goondiwindi (28° 55'S, 150° 31′E) from 14 Feb. to 6 Mar. 2012.
as §1, with “The” for “In both trials, the”, “mirids, green vegetable bugs” for “mirids”, “assessed:” for “evaluated:”, “mL/ha” for “mL/ha of”
The plots were arranged in a randomized complete block design with three replicates per treatment. Each replicated plot measured 8 m (8 rows) wide and 250 m long.
Foliar applications of each treatment were made on 14 Feb. 2012 using a ground spray rig fitted with flat fan nozzles to achieve a droplet size of 200 μm. All insecticide formulations were water miscible. All treatments were applied using a spray volume of 100 L/ha. The untreated (negative control) plot was left unsprayed and the plot treated with synthetic insecticide received two applications similar to, and on the same date as, the plots treated with the fungus.
For each replicate, visual counts of adults and nymphs of green mirids, green vegetable bugs (GVB), apple dimpling bugs and predatory insects on whole cotton plants were made in a randomly selected 1 m length of row of cotton plants (i.e. 6 m per treatment). […]

N#Cc1nn(-c2c(Cl)cc(C(F)(F)F)cc2Cl)c(N)c1[S+]([O-])C(F)(F)F (stereo not shown) [fipronil]
number of lacewings per meter (lacewings; 3 DAT): 0.00 ± 0.00 a per meter
number of lacewings per meter (lacewings; 7 DAT): 0.00 ± 0.00 a per meter
number of lacewings per meter (lacewings; 14 DAT): 0.33 ± 0.33 a per meter
number of lacewings per meter (lacewings; pre-spray counts 18 Jan. 2011): 0.67 ± 0.33 a per meter
number of lacewings per metre (lacewings; 3 DAT): 0.33 ± 0.33a per metre
number of lacewings per metre (lacewings; 7 DAT): 0.67 ± 0.33a per metre
number of lacewings per metre (lacewings; 14 DAT): 0.67 ± 0.33a per metre
number of lacewings per metre (lacewings; 21 DAT): 1.67 ± 0.33a per metre
number of lacewings per metre (lacewings; 28 DAT): 1.33 ± 0.33a per metre
number of lacewings per metre (lacewings; pre-spray counts 1 Feb. 2011): 0.33 ± 0.33a per metre
No. predatory beetles per meter (predatory beetles; 3 DAT): 1.33 ± 0.33 a per meter
No. predatory beetles per meter (predatory beetles; 7 DAT): 1.33 ± 0.33 a per meter
No. predatory beetles per meter (predatory beetles; 14 DAT): 1.00 ± 0.58 a per meter
No. predatory beetles per meter (predatory beetles; 21 DAT): 1.33 ± 0.33 b per meter
No. predatory beetles per meter (predatory beetles; pre-spray counts): 3.68 ± 0.33 a per meter
effect on number of predatory bugs per metre (predatory bugs): significantly lower
